Earlier results as cited in patent publication US8097267B2, “Moisture resistant container systems for rapidly bioavailable dosage forms” (APR Applied Pharma Research s.a., priority 2006, dated 2012).

Settings: acidic environment

## [(2,6-dichloro-anilino)-2-phenyl]-2-acetic acid [diclofenac potassium]
  precipitation: tendency to precipitate in an acidic environment
